# Reference: patent US20230172961A1 (priority 2020, published 2023)
# Entries after “also recorded” stand apart in the source; their conditions may differ. Read-outs that look alike come from different tables or passages of the source.
# How the values were obtained:
# [1] = test system: RdRp of SARS-CoV and/or SARS-CoV-2; format: biochemical
# [2] = target: T1, SARS-CoV-2 RdRp (nsp12, nsp7 and nsp8) (Severe acute respiratory syndrome coronavirus 2, UniProt P0DTD1); format: biochemical
# [3] = target: SARS-CoV RdRp (nsp12, nsp7 and nsp8) (Severe acute respiratory syndrome coronavirus, UniProt P0C6X7); format: biochemical
# [4] = target: SARS-CoV-2 exonuclease complex (nsp14/nsp10) (Severe acute respiratory syndrome coronavirus 2, UniProt P0DTD1); assay: Inhibition of SARS-CoV-2 exonuclease, MALDI-TOF MS; format: biochemical
# [5] = target: T1, SARS-CoV-2 RdRp (nsp12, nsp7 and nsp8); settings: kinetic studies of Gordon et al 2020a, b; RDV-TP with MERS-CoV and SARS-CoV-2 RdRps; cited from earlier work
# [6] = 10 µM inhibitor, 30 nM nsp14/nsp10, 37° C., 15 min
# [7] = 150 µM inhibitor, 30 nM nsp14/nsp10, 37° C., 15 min
# [8] = 30 µM inhibitor, 30 nM nsp14/nsp10, 37° C., 15 min
# [9] = 100 µM inhibitor, 30 nM nsp14/nsp10, 37° C., 15 min
# [10] = 300 µM inhibitor, 30 nM nsp14/nsp10, 37° C., 15 min
compound,measurement,setting,value
"Cc1cn([C@H]2C=C[C@@H](COP(=O)(O)OP(=O)(O)OP(=O)(O)O)O2)c(=O)[nH]c1=O [Sta-TP, Stavudine 5′-triphosphate]",termination of the polymerase reaction (summary of the 11 tested),[1],complete termination of the polymerase reaction
same,incorporation efficiency,[2],very efficiently incorporated
same,termination of the polymerase reaction,[2],complete termination of the polymerase reaction
same,termination of the polymerase reaction at 10-fold lower concentration,[2],resulted in termination of the polymerase reaction
"Nc1nc(O)c2ncn(COC(CO)COP(=O)(O)OP(=O)(O)OP(=O)(O)O)c2n1 (centres unmarked) [Gan-TP, Ganciclovir 5′-triphosphate]",termination of the polymerase reaction (summary of the 11 tested),[1],complete termination of the polymerase reaction
same,termination of the polymerase reaction,[2],complete termination; also recorded: better terminators than Ent-TP
same,termination of the polymerase reaction,[3],terminate the polymerase reaction
O=c1ccn([C@@H]2O[C@H](COP(=O)(O)OP(=O)(O)OP(=O)(O)O)[C@@H](O)[C@H]2O)c(=O)[nH]1 [UTP],termination of the polymerase reaction,[3],primer extension by 2 UTPs occurred
COC(=O)N[C@H](C(=O)N1CCC[C@H]1c1nc2cc([C@H]3CC[C@H](c4cc5nc([C@@H]6CCCN6C(=O)[C@@H](NC(=O)OC)[C@@H](C)OC)[nH]c5cc4F)N3c3cc(F)c(N4CCC(c5ccc(F)cc5)CC4)c(F)c3)c(F)cc2[nH]1)[C@@H](C)OC [Pibrentasvir],inhibition of exonuclease activity,"[4]; 0.1 µM inhibitor, 30 nM nsp14/nsp10, 37° C., 15 min",shows inhibition of the exonuclease activity
same,inhibition of exonuclease activity,[4]; [6],significantly increased inhibition of exonuclease activity
same,inhibition of exonuclease activity,[4]; [7],able to inhibit the exonuclease
"Cc1cn([C@H]2C[C@H](F)[C@@H](COP(=O)(O)OP(=O)(O)OP(=O)(O)O)O2)c(=O)[nH]c1=O [3′-F-dTTP, 3′-fluoro-3′-deoxythymidine triphosphate]",incorporation efficiency,[2],efficient substrates of the RdRp
same,termination of the polymerase reaction,[2],no further incorporation
same,termination of the polymerase reaction,[3],permanent terminators
O=c1ccn([C@H]2C[C@H](O)[C@@H](COP(=O)(O)OP(=O)(O)OP(=O)(O)O)O2)c(=O)[nH]1 [dUTP],relative incorporation efficiency in equimolar combinations,"[2]; 250 µM each nucleotide, equimolar combinations (FIG. 36)",lower incorporation efficiency than the natural UTP
"CO[C@H]1[C@@H](O)[C@H](n2ccc(=O)[nH]c2=O)O[C@@H]1COP(=O)(O)OP(=O)(O)OP(=O)(O)O [3′-OMe-UTP, 3′-0-methyluridine-5′-triphosphate]",termination of the polymerase reaction (summary of the 11 tested),[1],complete termination of the polymerase reaction
same,incorporation efficiency,[3],lower incorporation efficiency
same,termination of the polymerase reaction,[3],obligate terminator
CC(C)c1nc(CN(C)C(=O)N[C@H](C(=O)N[C@@H](Cc2ccccc2)C[C@H](O)[C@H](Cc2ccccc2)NC(=O)OCc2cncs2)C(C)C)cs1 [Ritonavir],inhibition of exonuclease activity,[4]; [6],shows inhibition of the exonuclease activity
same,inhibition of exonuclease activity,[4]; [8],fragmentation peaks are further reduced
same,inhibition of exonuclease activity,[4]; [9],fragmentation peaks are further reduced
same,inhibition of exonuclease activity,[4]; [10],complete inhibition of exonuclease activity
Cidofovir diphosphate [Cid-DP],termination of the polymerase reaction (summary of the 11 tested),[1],incomplete or delayed termination
same,termination of the polymerase reaction,[2],delayed termination
same,termination of the polymerase reaction at 10-fold lower concentration,[2],resulted in termination of the polymerase reaction
same,termination of the polymerase reaction,[3],terminate the polymerase reaction
"CC(Cn1cnc2c(N)ncnc21)OCP(=O)(O)OP(=O)(O)OP(=O)(O)O (stereo in doubt) [TFV-DP, Tenofovir diphosphate]",termination of the polymerase reaction,[2],obligate terminator for the RdRp
desthiobiotin-16-aminoallyl-uridine-5′-triphosphate [Desthio-UTP],termination of the polymerase reaction (summary of the 11 tested),[1],did not terminate the polymerase reaction
same,incorporation efficiency,[2],incorporated
same,termination of the polymerase reaction,[2],does not terminate the polymerase reaction
COC(=O)N[C@H](C(=O)N1CC2(CC2)C[C@H]1c1nc(-c2ccc3c(c2)C(F)(F)c2cc(-c4ccc5[nH]c([C@@H]6[C@H]7CC[C@H](C7)N6C(=O)[C@@H](NC(=O)OC)C(C)C)nc5c4)ccc2-3)c[nH]1)C(C)C [Ledipasvir],inhibition of exonuclease activity,[4]; [7],able to inhibit the exonuclease
Sofosbuvir,extension of the RNA template-loop-primer,"[2]; […], RDV-TP together with UTP",complete conversion
"Nc1nc(=O)n([C@@H]2CS[C@H](COP(=O)(O)OP(=O)(O)OP(=O)(O)O)O2)cc1F [Ec-TP, Emtricitabine triphosphate]",incorporation efficiency,[2],relatively poor incorporation
"N[C@@H]1[C@H](O)[C@@H](COP(=O)(O)OP(=O)(O)OP(=O)(O)O)O[C@H]1n1ccc(=O)[nH]c1=O [2′-NH2-dUTP, 2′-amino-2′-deoxyuridine-5′-triphosphate]",termination of the polymerase reaction (summary of the 11 tested),[1],did not terminate the polymerase reaction
same,relative incorporation efficiency in equimolar combinations,[2],more efficiently incorporated than 2′-O-Me-UTP and dUTP
same,termination of the polymerase reaction in equimolar combinations,[2],not terminators of the polymerase reaction
N#C[C@@]1(c2ccc3c(N)ncnn23)O[C@H](COP(=O)(O)OP(=O)(O)OP(=O)(O)O)[C@@H](O)[C@H]1O [RDV-TP],incorporation efficiency relative to the natural nucleotide,[5],higher incorporation efficiency than ATP
"Cc1cn([C@H]2C[C@H](N=[N+]=[N-])[C@@H](COP(=O)(O)OP(=O)(O)OP(=O)(O)O)O2)c(=O)[nH]c1=O [3′-N3-dTTP, 3′-N3-3′-deoxythymidine triphosphate]",incorporation efficiency,[2],"incorporation efficiency was lower than for 2′-F,Me-UTP and 3′-F-dTTP"
same,termination of the polymerase reaction,[2],no evidence of further incorporation
same,termination of the polymerase reaction,[3],permanent terminators
COc1cc2c(cc1Cc1cccc(Cl)c1F)c(=O)c(C(=O)O)cn2[C@H](CO)C(C)C [Elvitegravir],inhibition of exonuclease activity,[4]; concentration not stated for this compound (FIG. 59d),able to inhibit the exonuclease
"CO[C@@H]1[C@H](O)[C@@H](COP(=O)(O)OP(=O)(O)OP(=O)(O)O)O[C@H]1n1ccc(=O)[nH]c1=O [2′-OMe-UTP, 2′-O-methyluridine-5′-triphosphate]",termination of the polymerase reaction (summary of the 11 tested),[1],incomplete or delayed termination
same,termination of the polymerase reaction,[2],significant termination after the first incorporation step
same,termination of the polymerase reaction,[3],significant polymerase reaction termination
biotin-16-aminoallyl-2′-deoxyuridine-5′-triphosphate [Biotin-dUTP],termination of the polymerase reaction (summary of the 11 tested),[1],complete termination of the polymerase reaction
same,relative incorporation efficiency in equimolar combinations,[2],lower incorporation efficiency than the natural UTP
same,termination of the polymerase reaction,[2],terminator of the polymerase reaction
COC(=O)N[C@H](C(=O)N1CCC[C@H]1C(=O)Nc1ccc([C@@H]2CC[C@@H](c3ccc(NC(=O)[C@@H]4CCCN4C(=O)[C@@H](NC(=O)OC)C(C)C)cc3)N2c2ccc(C(C)(C)C)cc2)cc1)C(C)C [Ombitasvir],inhibition of exonuclease activity,"[4]; 1 µM inhibitor, 30 nM nsp14/nsp10, 37° C., 15 min",shows inhibition of the exonuclease activity
same,inhibition of exonuclease activity,[4]; [6],significantly increased inhibition of exonuclease activity
same,inhibition of exonuclease activity,[4]; [7],able to inhibit the exonuclease
"O=c1ccn([C@@H]2O[C@H](COP(=O)(O)OP(=O)(O)OP(=O)(O)O)[C@@H](O)[C@H]2F)c(=O)[nH]1 [2′-F-dUTP, 2′-fluoro-2′-deoxyuridine-5′-triphosphate]",termination of the polymerase reaction (summary of the 11 tested),[1],did not terminate the polymerase reaction
same,relative incorporation efficiency in equimolar combinations,[2],incorporated far better than 2′-O-Me-UTP and dUTP
same,termination of the polymerase reaction in equimolar combinations,[2],not terminators of the polymerase reaction
same,incorporation efficiency,[3],incorporated very efficiently
"Nc1ccn([C@@H]2CS[C@H](COP(=O)(O)OP(=O)(O)OP(=O)(O)O)O2)c(=O)n1 [Lam-TP, Lamivudine triphosphate]",incorporation efficiency,[2],relatively poor incorporation
Cc1cccc(C)c1OCC(=O)N[C@@H](Cc1ccccc1)[C@@H](O)C[C@H](Cc1ccccc1)NC(=O)[C@H](C(C)C)N1CCCNC1=O [Lopinavir],inhibition of exonuclease activity,[4]; [6],small inhibition of the exonuclease activity
same,inhibition of exonuclease activity,[4]; [8],fragmentation peaks are further reduced
same,inhibition of exonuclease activity,[4]; [9],fragmentation peaks are further reduced
same,inhibition of exonuclease activity,[4]; [10],complete inhibition of exonuclease activity
